# Target: OATP1B1 (Homo sapiens, UniProt Q9Y6L6)
# Type: cell-based
# Parameters: expressed in transfected cells; host or cells: A431
# Conditions: 2, 5 or 10 µM AOH; 15 min; pH 5.5
# Description: The A431 cell line overexpressing OATP1B1 or mock transfected control were trypsinized, and counted with automated cell counter (TC10, BIORAD, Hercules, CA, USA). The cells were washed with 1 mL buffer (pH 5.5; described above) and centrifuged for 5 min at 1500 g. After the supernatant was removed, 2 × 10^6 cells in 50 µL volume of the same buffer were handed out into separate Eppendorf tubes, then 50 µL of AOH solutions (diluted in buffer, pH 5.5) was added (final concentrations: 2, 5, or 10 µM). The cells were incubated for 15 min at 37 °C in shaking water bath. The reaction was stopped with 1 mL ice-cold PBS, after which the tubes were centrifuged for 5 min at 1500 g and 4 °C. The supernatant was removed, and the cells were washed with 1 mL ice-cold PBS, then the cell pellet was stored at −80 °C until analyses.
# Before HPLC measurements, cell pellets were dissolved in 100 μL of 1 M NaOH solution with vigorous vortexing. After 15 min sonication, the solution was neutralized with 100 μL of 1 M HCl, then 200 μL acetonitrile was added. […] Thereafter, the supernatant was directly analyzed with HPLC-FLD (see details in Section 2.7).
# To examine the OATP1B1-mediated uptake of AOH in A431 cells, our recently reported magnesium-sensitized HPLC-FLD method was applied. […] AOH was quantified using 345 nm and 455 nm excitation and emission wavelengths, respectively. […]
# OATP1B1, sequence (Q9Y6L6 whole entry): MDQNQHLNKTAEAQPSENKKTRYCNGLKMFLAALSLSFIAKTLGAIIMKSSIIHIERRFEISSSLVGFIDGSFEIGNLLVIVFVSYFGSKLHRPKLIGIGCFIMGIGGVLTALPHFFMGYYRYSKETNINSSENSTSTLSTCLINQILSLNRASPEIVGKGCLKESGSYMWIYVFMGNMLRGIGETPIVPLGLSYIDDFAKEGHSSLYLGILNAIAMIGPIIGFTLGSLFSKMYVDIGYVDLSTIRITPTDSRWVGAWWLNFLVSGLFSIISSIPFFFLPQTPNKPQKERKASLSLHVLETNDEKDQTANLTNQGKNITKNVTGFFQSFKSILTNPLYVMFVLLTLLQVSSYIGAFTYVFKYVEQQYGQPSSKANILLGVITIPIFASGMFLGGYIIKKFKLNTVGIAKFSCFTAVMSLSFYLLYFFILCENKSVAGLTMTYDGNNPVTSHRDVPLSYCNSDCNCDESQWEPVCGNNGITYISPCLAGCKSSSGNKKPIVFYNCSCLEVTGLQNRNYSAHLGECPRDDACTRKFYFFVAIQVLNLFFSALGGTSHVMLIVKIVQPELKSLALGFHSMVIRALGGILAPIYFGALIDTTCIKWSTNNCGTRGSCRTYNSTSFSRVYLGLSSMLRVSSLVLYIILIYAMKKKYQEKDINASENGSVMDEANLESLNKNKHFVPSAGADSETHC
compound,measurement,value
"Cc1cc(O)cc2oc(=O)c3c(O)cc(O)cc3c12 [AOH, Alternariol]",cellular AOH levels in OATP1B1 expressing vs mock cells,higher cellular AOH levels

# — paper PMC9862037, “Interactions of Mycotoxin Alternariol with Cytochrome P450 Enzymes and OATP Transporters” (Metabolites, 2022)
